# Test results reported in the supplement of paper PMC4862054.
# How the values were obtained:
# Conditions in all cases: incubation time: 72 h
# CAL-120 [1] = test: drug sensitivity score (DSS), CellTiter-Glo (DSS (AUC-based score)); higher = stronger drug effect (viability inhibition or cytotoxicity); extreme values may be limits of the assay
# Outline: (§1)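 After 72 h of incubation in 384-well plates with compound at 5 concentrations (10-fold steps, 10,000-fold range set per compound), breast cancer cell lines seeded in 20 µl suspension were read first for CellTox Green fluorescence at 485/520 nm. CellTiter-Glo luminescence was measured next, after 10 min at room temperature. Normalisation on each plate used 0.1 % DMSO and a positive kill control, and the drug sensitivity score was computed from the area under the fitted dose-response curve.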
# CAL-51 [2] = test: as above
# Outline: as §1
# SK-BR-3 [3] = test: as above
# Outline: as §1
# BT-474 = test: normalised viability (% of control), CellTiter-Blue; higher = more viable cells (about 100 = DMSO control)
# Procedure: (§2)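 DSRT, CellTiter-Blue viability, 72 h incubation. Signal is normalised to DMSO and benzethonium chloride controls. Value is the normalised response at dose 3.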
# BT-549 = test: as above
# Procedure: as §2
# CAL-120 [4] = test: as above
# Procedure: as §2
# CAL-148 [5] = test: as above
# Procedure: as §2
# CAL-51 [6] = test: as above
# Procedure: as §2
# CAL-85-1 [7] = test: as above
# Procedure: as §2
# DU-4475 [8] = test: as above
# Procedure: as §2
# HCC1143 = test: as above
# Procedure: as §2
# HCC1599 = test: as above
# Procedure: as §2
# HCC1937 = test: as above
# Procedure: as §2
# HDQ-P1 [9] = test: as above
# Procedure: as §2
# Hs578T = test: as above
# Procedure: as §2
# MDA-MB-231 = test: as above
# Procedure: as §2
# MDA-MB-436 = test: as above
# Procedure: as §2
# MDA-MB-453 [10] = test: as above
# Procedure: as §2
# MDA-MB-468 = test: as above
# Procedure: as §2
# MFM-223 = test: as above
# Procedure: as §2
# SK-BR-3 [11] = test: as above
# Procedure: as §2
# CAL-148 [12] = test: as above; remark: listed apart in the source
# Procedure: (§3)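 DSRT, CellTiter-Blue viability, 72 h incubation. Signal is normalised to DMSO and benzethonium chloride controls. Value is the normalised response at dose 7.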
# CAL-51 [13] = test: as above; remark: listed apart in the source
# Procedure: as §3
# CAL-85-1 [14] = test: as above; remark: listed apart in the source
# Procedure: as §3
# DU-4475 [15] = test: as above; remark: listed apart in the source
# Procedure: as §3
# HDQ-P1 [16] = test: as above; remark: listed apart in the source
# Procedure: as §3
# MDA-MB-453 [17] = test: as above; remark: listed apart in the source
# Procedure: as §3
# CAL-148 [18] = test: normalised viability (% of control), CellTiter-Blue; higher = more viable cells (about 100 = DMSO control); remark: listed apart in the source
# Outline: (§4)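 Breast cancer cell lines were treated for 72 h in 384-well format and measured by CellTiter-Blue fluorescence at 560/590 nm. Results were normalised per plate to vehicle (100) and a positive kill control (0). The entry is normalised viability at a single listed concentration of the series.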
# CAL-51 [19] = test: as above; remark: listed apart in the source
# Outline: as §4
# CAL-85-1 [20] = test: as above; remark: listed apart in the source
# Outline: as §4
compound,measurement,setting,value
C=CCc1cccc(/C=N/NC(=O)CN2CCN(Cc3ccccc3)CC2)c1O [PAC-1],drug sensitivity score,CAL-120 [1],3.26
same,drug sensitivity score,CAL-51 [2],8.79
same,drug sensitivity score,SK-BR-3 [3],3.2
C1CN1c1nc(N2CC2)nc(N2CC2)n1 [Triethylenemelamine],normalised viability,BT-474; 100 nM,113%
same,normalised viability,BT-549; 100 nM,95.7%
same,normalised viability,CAL-120 [4]; 100 nM,109%
same,normalised viability,CAL-148 [5]; 10 nM,103%
same,normalised viability,CAL-51 [6]; 10 nM,100%
same,normalised viability,CAL-85-1 [7]; 10 nM,101%
same,normalised viability,DU-4475 [8]; 10 nM,102%
same,normalised viability,HCC1143; 100 nM,105%
same,normalised viability,HCC1599; 100 nM,106%
same,normalised viability,HCC1937; 100 nM,88.5%
same,normalised viability,HDQ-P1 [9]; 10 nM,102%
same,normalised viability,Hs578T; 100 nM,107%
same,normalised viability,MDA-MB-231; 100 nM,115%
same,normalised viability,MDA-MB-436; 100 nM,105%
same,normalised viability,MDA-MB-453 [10]; 10 nM,96.6%
same,normalised viability,MDA-MB-468; 100 nM,101%
same,normalised viability,MFM-223; 100 nM,93.8%
same,normalised viability,SK-BR-3 [11]; 100 nM,95.5%
same,normalised viability,CAL-148 [12]; 1000 nM,110%
same,normalised viability,CAL-51 [13]; 1000 nM,104%
same,normalised viability,CAL-85-1 [14]; 1000 nM,98.4%
same,normalised viability,DU-4475 [15]; 1000 nM,102%
same,normalised viability,HDQ-P1 [16]; 1000 nM,102%
same,normalised viability,MDA-MB-453 [17]; 1000 nM,94.4%
same,normalised viability,CAL-148 [18]; 10000 nM,80%
same,normalised viability,CAL-51 [19]; 10000 nM,60.5%
same,normalised viability,CAL-85-1 [20]; 10000 nM,72.8%
CC[C@H](Nc1ncnc2[nH]cnc12)c1nc2cccc(F)c2c(=O)n1-c1ccccc1 [CAL-101],normalised viability,BT-474; 100 nM,112%
same,normalised viability,BT-549; 100 nM,102%
same,normalised viability,CAL-120 [4]; 100 nM,97.2%
same,normalised viability,CAL-148 [5]; 10 nM,96.2%
same,normalised viability,CAL-51 [6]; 10 nM,84.7%
same,normalised viability,CAL-85-1 [7]; 10 nM,87.5%
same,normalised viability,DU-4475 [8]; 10 nM,98.6%
same,normalised viability,HCC1143; 100 nM,102%
same,normalised viability,HCC1599; 100 nM,73.6%
same,normalised viability,HCC1937; 100 nM,97.1%
same,normalised viability,HDQ-P1 [9]; 10 nM,112%
same,normalised viability,Hs578T; 100 nM,89.6%
same,normalised viability,MDA-MB-231; 100 nM,80.9%
same,normalised viability,MDA-MB-436; 100 nM,104%
same,normalised viability,MDA-MB-453 [10]; 10 nM,97.4%
same,normalised viability,MDA-MB-468; 100 nM,115%
same,normalised viability,MFM-223; 100 nM,88.3%
same,normalised viability,SK-BR-3 [11]; 100 nM,76.3%
same,normalised viability,CAL-148 [12]; 1000 nM,79.9%
same,normalised viability,CAL-51 [13]; 1000 nM,81.9%
same,normalised viability,CAL-85-1 [14]; 1000 nM,80.5%
same,normalised viability,DU-4475 [15]; 1000 nM,87.8%
same,normalised viability,HDQ-P1 [16]; 1000 nM,82.4%
same,normalised viability,MDA-MB-453 [17]; 1000 nM,87.7%
same,normalised viability,CAL-148 [18]; 10000 nM,88.1%
same,normalised viability,CAL-51 [19]; 10000 nM,57.3%
same,normalised viability,CAL-85-1 [20]; 10000 nM,47.5%
O=C(O)C1(C(=O)O)CCC1.[NH2-].[NH2-].[Pt+2] [Carboplatin],normalised viability,BT-474; 100 nM,116%
same,normalised viability,BT-549; 100 nM,101%
same,normalised viability,CAL-120 [4]; 100 nM,88%
same,normalised viability,CAL-148 [5]; 10 nM,92.4%
same,normalised viability,CAL-51 [6]; 10 nM,100%
same,normalised viability,CAL-85-1 [7]; 10 nM,87.3%
same,normalised viability,DU-4475 [8]; 10 nM,98.9%
same,normalised viability,HCC1143; 100 nM,86.4%
same,normalised viability,HCC1599; 100 nM,92.8%
same,normalised viability,HCC1937; 100 nM,94.5%
same,normalised viability,HDQ-P1 [9]; 10 nM,96.6%
same,normalised viability,Hs578T; 100 nM,96%
same,normalised viability,MDA-MB-231; 100 nM,92.7%
same,normalised viability,MDA-MB-436; 100 nM,93.3%
same,normalised viability,MDA-MB-453 [10]; 10 nM,103%
same,normalised viability,MDA-MB-468; 100 nM,98.8%
same,normalised viability,MFM-223; 100 nM,88%
same,normalised viability,SK-BR-3 [11]; 100 nM,91.1%
same,normalised viability,CAL-148 [12]; 1000 nM,103%
same,normalised viability,CAL-51 [13]; 1000 nM,99.9%
same,normalised viability,CAL-85-1 [14]; 1000 nM,81.5%
same,normalised viability,DU-4475 [15]; 1000 nM,97.3%
same,normalised viability,HDQ-P1 [16]; 1000 nM,97.1%
same,normalised viability,MDA-MB-453 [17]; 1000 nM,99.3%
same,normalised viability,CAL-148 [18]; 10000 nM,44.6%
same,normalised viability,CAL-51 [19]; 10000 nM,42.3%
same,normalised viability,CAL-85-1 [20]; 10000 nM,56.2%
same,drug sensitivity score,CAL-120 [1],0
same,drug sensitivity score,CAL-51 [2],0
same,drug sensitivity score,SK-BR-3 [3],0
O=C(/C=C/c1cccnc1)NCCCCC1CCN(C(=O)c2ccccc2)CC1 [FK-866],normalised viability,BT-474; 10 nM,91.6%
same,normalised viability,BT-549; 10 nM,38.6%
same,normalised viability,CAL-120 [4]; 10 nM,55%
same,normalised viability,CAL-148 [5]; 1 nM,91.5%
same,normalised viability,CAL-51 [6]; 1 nM,102%
same,normalised viability,CAL-85-1 [7]; 1 nM,103%
same,normalised viability,DU-4475 [8]; 1 nM,84.9%
same,normalised viability,HCC1143; 10 nM,43.2%
same,normalised viability,HCC1599; 10 nM,74.7%
same,normalised viability,HCC1937; 10 nM,91.1%
same,normalised viability,HDQ-P1 [9]; 1 nM,120%
same,normalised viability,Hs578T; 10 nM,20.1%
same,normalised viability,MDA-MB-231; 10 nM,83.1%
same,normalised viability,MDA-MB-436; 10 nM,38%
same,normalised viability,MDA-MB-453 [10]; 1 nM,86.1%
same,normalised viability,MDA-MB-468; 10 nM,8.4%
same,normalised viability,MFM-223; 10 nM,23.2%
same,normalised viability,SK-BR-3 [11]; 10 nM,91.2%
same,normalised viability,CAL-148 [12]; 100 nM,53.7%
same,normalised viability,CAL-51 [13]; 100 nM,44.3%
same,normalised viability,CAL-85-1 [14]; 100 nM,54.6%
same,normalised viability,DU-4475 [15]; 100 nM,6.4%
same,normalised viability,HDQ-P1 [16]; 100 nM,48.9%
same,normalised viability,MDA-MB-453 [17]; 100 nM,21.1%
same,normalised viability,CAL-148 [18]; 1000 nM,44.2%
same,normalised viability,CAL-51 [19]; 1000 nM,34%
same,normalised viability,CAL-85-1 [20]; 1000 nM,49.2%
C=CC(=O)N1CCC[C@@H](n2nc(-c3ccc(Oc4ccccc4)cc3)c3c(N)ncnc32)C1,normalised viability,BT-474; 10 nM,84.3%
same,normalised viability,BT-549; 10 nM,97.9%
same,normalised viability,CAL-120 [4]; 10 nM,83.5%
same,normalised viability,CAL-148 [5]; 1 nM,99.5%
same,normalised viability,CAL-51 [6]; 1 nM,95%
same,normalised viability,CAL-85-1 [7]; 1 nM,96.2%
same,normalised viability,DU-4475 [8]; 1 nM,92.8%
same,normalised viability,HCC1143; 10 nM,79.6%
same,normalised viability,HCC1599; 10 nM,85.6%
same,normalised viability,HCC1937; 10 nM,108%
same,normalised viability,HDQ-P1 [9]; 1 nM,111%
same,normalised viability,Hs578T; 10 nM,99.8%
same,normalised viability,MDA-MB-231; 10 nM,90.3%
same,normalised viability,MDA-MB-436; 10 nM,88.2%
same,normalised viability,MDA-MB-453 [10]; 1 nM,94.4%
same,normalised viability,MDA-MB-468; 10 nM,102%
same,normalised viability,MFM-223; 10 nM,91.1%
same,normalised viability,SK-BR-3 [11]; 10 nM,57.9%
same,normalised viability,CAL-148 [12]; 100 nM,98%
same,normalised viability,CAL-51 [13]; 100 nM,91.9%
same,normalised viability,CAL-85-1 [14]; 100 nM,77.3%
same,normalised viability,DU-4475 [15]; 100 nM,92.4%
same,normalised viability,HDQ-P1 [16]; 100 nM,111%
same,normalised viability,MDA-MB-453 [17]; 100 nM,39.5%
same,normalised viability,CAL-148 [18]; 1000 nM,76.3%
same,normalised viability,CAL-51 [19]; 1000 nM,86.5%
same,normalised viability,CAL-85-1 [20]; 1000 nM,49.1%
